IC50 data for five compounds are collected here from ChEMBL document CHEMBL1131223, “Potent antagonists of the SH2 domain of Grb2: optimization of the X+1 position of 3-amino-Z-Tyr(PO3H2)-X+1-Asn-NH2” (J Med Chem, 1998).

Broadly, the IC50 is the concentration needed to halve the response being measured. A higher IC50 goes with lower potency.

Assay [1] concerns the target T1, Growth factor receptor-bound protein 2 (Homo sapiens, UniProt P62993). In words: Inhibition of binding to Grb2 SH2 domain.
The target of assay [2] is Tyrosine-protein kinase Lck (Homo sapiens, UniProt P06239). As to the kind of experiment: Inhibition of binding to p56 Lck tyrosine kinase SH2 domain.
Chain of Tyrosine-protein kinase Lck (P06239 whole entry, the tested form may be a part): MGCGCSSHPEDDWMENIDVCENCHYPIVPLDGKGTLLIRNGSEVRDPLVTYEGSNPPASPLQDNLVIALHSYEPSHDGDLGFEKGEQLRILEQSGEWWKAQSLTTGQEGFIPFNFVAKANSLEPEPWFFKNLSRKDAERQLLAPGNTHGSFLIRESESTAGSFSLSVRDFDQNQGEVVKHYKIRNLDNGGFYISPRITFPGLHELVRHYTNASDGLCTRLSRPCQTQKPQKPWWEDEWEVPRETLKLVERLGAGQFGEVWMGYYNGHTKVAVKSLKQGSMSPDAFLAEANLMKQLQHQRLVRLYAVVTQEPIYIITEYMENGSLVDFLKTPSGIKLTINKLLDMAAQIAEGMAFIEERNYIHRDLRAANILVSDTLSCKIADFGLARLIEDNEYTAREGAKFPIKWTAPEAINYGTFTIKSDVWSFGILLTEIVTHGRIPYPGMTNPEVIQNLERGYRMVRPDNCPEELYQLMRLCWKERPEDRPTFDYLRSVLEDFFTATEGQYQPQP
For assay [3], the target named is T2, Tyrosine-protein phosphatase non-receptor type 11 (Homo sapiens, UniProt Q06124).
T2 sequence (Q06124 whole entry): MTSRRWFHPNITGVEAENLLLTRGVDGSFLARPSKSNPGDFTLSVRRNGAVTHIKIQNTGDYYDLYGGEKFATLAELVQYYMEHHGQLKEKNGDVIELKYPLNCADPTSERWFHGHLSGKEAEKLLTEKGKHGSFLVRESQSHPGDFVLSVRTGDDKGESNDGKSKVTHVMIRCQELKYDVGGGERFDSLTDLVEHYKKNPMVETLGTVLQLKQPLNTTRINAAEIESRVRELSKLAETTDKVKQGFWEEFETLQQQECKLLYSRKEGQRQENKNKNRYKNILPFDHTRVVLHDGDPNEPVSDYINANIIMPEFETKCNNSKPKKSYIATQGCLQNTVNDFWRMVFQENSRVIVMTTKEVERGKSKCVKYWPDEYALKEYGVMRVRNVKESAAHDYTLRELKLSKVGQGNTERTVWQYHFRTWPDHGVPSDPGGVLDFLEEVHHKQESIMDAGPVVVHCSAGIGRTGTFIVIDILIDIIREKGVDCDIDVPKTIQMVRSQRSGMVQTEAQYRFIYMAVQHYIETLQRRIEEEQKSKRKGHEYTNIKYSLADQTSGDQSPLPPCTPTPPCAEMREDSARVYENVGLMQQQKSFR
In words: Inhibition of interaction between the activated tyrosine kinase receptors and Shp2 SH2 domains in the Ras signal transduction pathway.

A short description of assay [4]: Inhibition of binding to N-terminal p85 SH2 domain.
The target in assay [5] is T1, Growth factor receptor-bound protein 2. As to the kind of experiment: Inhibition of binding to Growth factor receptor bound protein 2 (Grb2) SH2 domain.

Where only a bound is given, the exact number is not on record here.

T1 sequence (P62993 whole entry, the tested form may be a part): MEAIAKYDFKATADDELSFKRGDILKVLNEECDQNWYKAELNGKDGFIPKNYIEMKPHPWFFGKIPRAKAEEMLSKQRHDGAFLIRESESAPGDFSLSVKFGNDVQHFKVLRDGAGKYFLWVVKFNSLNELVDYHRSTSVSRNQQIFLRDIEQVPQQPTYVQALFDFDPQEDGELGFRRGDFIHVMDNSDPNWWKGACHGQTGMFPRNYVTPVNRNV

Regarding `NC(=O)C[C@H](NC(=O)C1(NC(=O)[C@H](Cc2ccc(OP(=O)(O)O)cc2)NC(=O)OCc2cccc(N)c2)CCCC1)C(N)=O`, in assay [1], the IC50 was 23 nM. Regarding `NC(=O)C[C@H](NC(=O)C1(NC(=O)[C@@H](N)Cc2ccc(OP(=O)(O)O)c(N)c2)CCCCC1)C(N)=O`, the IC50 was 6.24 nM in assay [2]; greater than 5000 nM in assay [3]; 970 nM in assay [4]; 1 nM in assay [1]; 4 nM in assay [5].

Take `NC(=O)C[C@H](NC(=O)C1(NC(=O)[C@H](Cc2ccc(OP(=O)(O)O)cc2)NC(=O)OCc2cccc(N)c2)Cc2ccccc2C1)C(N)=O`: in assay [1], the IC50 is 140 nM. The same measure, in the same setting: with `CC(C)(NC(=O)[C@@H](N)Cc1ccc(OP(=O)(O)O)c(N)c1)C(=O)N[C@@H](CC(N)=O)C(N)=O` the figure was 206 nM; with `NC(=O)C[C@H](NC(=O)C1(NC(=O)[C@H](Cc2ccc(OP(=O)(O)O)cc2)NC(=O)OCc2cccc(N)c2)CC1)C(N)=O`, 124 nM.
